# According to publication PMC6102643, “Different Benzodiazepines Bind with Distinct Binding Modes to GABAA Receptors” (ACS Chemical Biology, 2018):
# Biological target: T1, α2β3γ2-GABAA receptors (Rattus norvegicus, UniProt P18508+P23576)
# T1 construct: expressed in transfected cells; host or cells: Xenopus laevis oocytes (mRNA injected)
# Test: Two-electrode voltage clamp recordings, α2β3γ2 in Xenopus laevis oocytes
# Format: cell-based
# Settings: GABA eliciting 3% of maximum current
# From the text: Radioligand displacement assays provide information about the binding of a compound to only a specific binding site. To exclude the possibility that compounds 2-R and 3-R bind at a site different from the [^3H]flunitrazepam binding site (and are therefore unable to compete with the radioligand), we decided to determine the efficacies of all our test compounds using two-electrode voltage clamp recordings on α2β3γ2-mRNA-treated Xenopus laevis oocytes (see Figure 5).
# Figure 5 Concentration–response curves of drug-induced enhancement of GABA currents. X. laevis oocytes were treated with mRNA for α2β3γ2-GABAA receptors and studied using two-electrode voltage clamp recordings. GABA-induced currents (3% of maximum) were modulated by addition of drug. Data are means ± the standard error of the mean of three independent experiments.
# (§1) Radioligand displacement assays were performed in HEK-293 cells transfected with recombinant rat αxβ3γ2 receptors (x = 1, 2, 3, or 5) using 2 nM [^3H]flunitrazepam and 1 nM to 10 μM investigated compound as described previously.[20] Two-electrode voltage clamp recordings were performed on X. laevis oocytes treated with mRNA for the desired subunit combination at a GABA concentration eliciting 3% of the maximum current.[21]
# T1 sequence (P23576 29-451): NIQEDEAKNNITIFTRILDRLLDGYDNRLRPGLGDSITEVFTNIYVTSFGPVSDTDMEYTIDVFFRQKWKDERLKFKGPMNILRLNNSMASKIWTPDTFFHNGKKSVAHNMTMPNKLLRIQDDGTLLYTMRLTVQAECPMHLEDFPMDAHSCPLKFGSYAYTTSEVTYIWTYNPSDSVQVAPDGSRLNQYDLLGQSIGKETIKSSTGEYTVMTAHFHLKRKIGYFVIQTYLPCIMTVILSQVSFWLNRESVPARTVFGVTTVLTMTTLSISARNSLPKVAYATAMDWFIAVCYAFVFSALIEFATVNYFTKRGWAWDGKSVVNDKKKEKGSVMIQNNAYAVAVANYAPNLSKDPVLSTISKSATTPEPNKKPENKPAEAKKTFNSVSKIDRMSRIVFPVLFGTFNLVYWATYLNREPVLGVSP
# T1 sequence (P63079 26-473 partner): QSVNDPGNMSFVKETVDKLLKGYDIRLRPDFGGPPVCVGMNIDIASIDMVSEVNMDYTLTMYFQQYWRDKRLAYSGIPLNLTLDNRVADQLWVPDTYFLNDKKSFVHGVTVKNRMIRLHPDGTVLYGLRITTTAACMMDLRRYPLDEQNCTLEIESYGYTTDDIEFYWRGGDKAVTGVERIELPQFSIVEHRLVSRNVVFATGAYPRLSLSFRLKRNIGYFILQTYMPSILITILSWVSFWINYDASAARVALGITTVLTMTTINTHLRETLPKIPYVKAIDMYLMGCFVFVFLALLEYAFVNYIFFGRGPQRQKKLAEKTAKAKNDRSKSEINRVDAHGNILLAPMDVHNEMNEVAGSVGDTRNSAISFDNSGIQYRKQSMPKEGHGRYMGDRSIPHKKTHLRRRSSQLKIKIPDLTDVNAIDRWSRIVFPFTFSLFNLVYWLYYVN
# T1 sequence (P18508 39-466): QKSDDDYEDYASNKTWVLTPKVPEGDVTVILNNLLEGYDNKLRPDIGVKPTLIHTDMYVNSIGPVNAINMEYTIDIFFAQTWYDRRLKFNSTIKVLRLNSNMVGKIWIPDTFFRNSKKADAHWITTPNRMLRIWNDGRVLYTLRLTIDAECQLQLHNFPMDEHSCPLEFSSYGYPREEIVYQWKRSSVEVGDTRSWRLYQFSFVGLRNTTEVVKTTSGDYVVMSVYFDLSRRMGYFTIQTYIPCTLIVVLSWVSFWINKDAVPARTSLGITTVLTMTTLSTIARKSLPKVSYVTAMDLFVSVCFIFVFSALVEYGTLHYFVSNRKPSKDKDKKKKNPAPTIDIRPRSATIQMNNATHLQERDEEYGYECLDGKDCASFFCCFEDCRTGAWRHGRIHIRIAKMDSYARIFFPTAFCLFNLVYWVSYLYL
row,SMILES,modulation of GABA-induced chloride ion flux (in words)
1,C#Cc1ccc2c(c1)C(c1ccccc1)=N[C@@H](C)c1nnc(C)n1-2 [compound 2-S],positive allosteric modulators
2,CCOC(=O)c1ncn2c1[C@H](C)N=C(c1ccccc1F)c1cc(Br)ccc1-2 [compound 1-S],positive allosteric modulators
3,CCOC(=O)c1ncn2c1[C@@H](C)N=C(c1ccccc1F)c1cc(Br)ccc1-2 [compound 1-R],positive allosteric modulators
4,C[C@@H]1N=C(c2ccccc2)c2cc(Br)ccc2NC1=O [compound 3-S],positive allosteric modulators

# Same assay, conditions: drug 10 μM; GABA eliciting 3% of maximum current
row,SMILES,modulation of GABA-induced currents at 10 μM
1,C#Cc1ccc2c(c1)C(c1ccccc1)=N[C@H](C)c1nnc(C)n1-2 [compound 2-R],slight positive modulation

# Same assay, conditions: drug ≤1 μM; GABA eliciting 3% of maximum current
row,SMILES,activity in the oocyte assay at drug concentrations of ≤1 μM
1,C[C@H]1N=C(c2ccccc2)c2cc(Br)ccc2NC1=O [compound 3-R],complete loss of activity
2,C#Cc1ccc2c(c1)C(c1ccccc1)=N[C@H](C)c1nnc(C)n1-2 [compound 2-R],complete loss of activity

# Tested on: α1-, α3-, and α5-containing GABAA receptors
# Test: not given
# Set-up: method as in PMID 20727364
# Settings: versus SH-053-2′F-S-CH3; cited from earlier work
row,SMILES,"lower affinity compared to the S isomer, α1-, α3-, and α5-containing receptors"
1,C#Cc1ccc2c(c1)C(c1ccccc1F)=N[C@H](C)c1c(C(=O)OCC)ncn1-2 [SH-053-2′F-R-CH3],3–5 fold

# Tested on: α1β3γ2, α3β3γ2, and α5β3γ2 GABAA receptors
# Test: Two-electrode voltage clamp recordings, other receptor combinations in oocytes
# Format: cell-based
# Settings: α1β3γ2, α3β3γ2, α5β3γ2 (and α2β3γ2); Figure S3
# Description: In addition to the analysis of α2β3γ2-containing GABAA receptors, we also performed similar electrophysiological studies of other receptor combinations such as α1β3γ2, α3β3γ2, and α5β3γ2 (see Figure S3).
# as §1
row,SMILES,modulation of GABA currents in all receptor subtypes (in words)
1,C#Cc1ccc2c(c1)C(c1ccccc1)=N[C@@H](C)c1nnc(C)n1-2 [compound 2-S],positive modulation
2,C[C@H]1N=C(c2ccccc2)c2cc(Br)ccc2NC1=O [compound 3-R],mainly modulatory silent
3,CCOC(=O)c1ncn2c1[C@H](C)N=C(c1ccccc1F)c1cc(Br)ccc1-2 [compound 1-S],positive modulation
4,C#Cc1ccc2c(c1)C(c1ccccc1)=N[C@H](C)c1nnc(C)n1-2 [compound 2-R],mainly modulatory silent
5,CCOC(=O)c1ncn2c1[C@@H](C)N=C(c1ccccc1F)c1cc(Br)ccc1-2 [compound 1-R],positive modulation
6,C[C@@H]1N=C(c2ccccc2)c2cc(Br)ccc2NC1=O [compound 3-S],positive modulation

# Biological target: T2, recombinant rat GABAA receptor α1β3γ2 (Rattus norvegicus, UniProt P18508+P62813)
# T2 construct: expressed in transfected cells; host or cells: HEK-293
# T2 sequence (P62813 28-455): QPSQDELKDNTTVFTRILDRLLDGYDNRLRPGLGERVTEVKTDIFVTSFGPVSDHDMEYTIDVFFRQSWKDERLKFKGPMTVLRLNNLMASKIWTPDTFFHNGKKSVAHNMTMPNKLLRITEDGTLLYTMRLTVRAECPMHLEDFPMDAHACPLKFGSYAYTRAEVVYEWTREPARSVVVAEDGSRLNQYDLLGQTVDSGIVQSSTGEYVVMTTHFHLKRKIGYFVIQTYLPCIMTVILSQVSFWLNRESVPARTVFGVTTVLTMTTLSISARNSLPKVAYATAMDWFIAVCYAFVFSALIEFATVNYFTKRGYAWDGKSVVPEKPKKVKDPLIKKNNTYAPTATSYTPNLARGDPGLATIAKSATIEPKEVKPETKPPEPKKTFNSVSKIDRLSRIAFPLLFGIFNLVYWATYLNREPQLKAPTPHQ
# T2 sequence (P63079 26-473 partner): as the sequence (P63079 26-473 partner) above
# T2 sequence (P18508 39-466): as the sequence (P18508 39-466) above
# Test: [3H]flunitrazepam radioligand displacement, α1β3γ2
# Format: binding
# Settings: not given
# Description: (§2) To exclude a binding behavior unique to α2-containing receptors, we also performed similar radioligand displacement studies on other receptor combinations such as recombinantly expressed rat GABAA receptor subtypes α1β3γ2, α3β3γ2, and α5β3γ2 (see Figure S2).
# as §1
# (§3) Inhibition of [3H]flunitrazepam binding to recombinant α1β3γ2, α2β3γ2, α3β3γ2, α5β3γ2 GABA A
# (§4) receptors subtypes. Membranes from HEK 293 cells transfected with GABAA receptor
# (§5) subunit combination, (α1β3γ2, α2β3γ2, α3β3γ2, α5β3γ2) were incubated with 2 nM
# (§6) [3H]flunitrazepam in the presence of various concentrations of GABAA -R ligands investigated.
# (§7) Data shown represent mean ± SEM of three experiments performed in duplicates each. […]
row,SMILES,Ki [nM]
1,C#Cc1ccc2c(c1)C(c1ccccc1)=N[C@@H](C)c1nnc(C)n1-2 [compound 2-S],663 ± 21
2,C[C@H]1N=C(c2ccccc2)c2cc(Br)ccc2NC1=O [compound 3-R],> 10000
3,CCOC(=O)c1ncn2c1[C@H](C)N=C(c1ccccc1F)c1cc(Br)ccc1-2 [compound 1-S],190 ± 55
4,C#Cc1ccc2c(c1)C(c1ccccc1)=N[C@H](C)c1nnc(C)n1-2 [compound 2-R],> 10000
5,CCOC(=O)c1ncn2c1[C@@H](C)N=C(c1ccccc1F)c1cc(Br)ccc1-2 [compound 1-R],273 ± 41
6,C[C@@H]1N=C(c2ccccc2)c2cc(Br)ccc2NC1=O [compound 3-S],64 ± 2

# Biological target: T3, recombinant rat GABAA receptor α2β3γ2 (Rattus norvegicus, UniProt P18508+P23576)
# T3 construct: expressed in transfected cells; host or cells: HEK-293
# T3 sequence (P23576 29-451): as the sequence (P23576 29-451) above
# T3 sequence (P63079 26-473 partner): as the sequence (P63079 26-473 partner) above
# T3 sequence (P18508 39-466): as the sequence (P18508 39-466) above
# Test: [3H]flunitrazepam radioligand displacement, α2β3γ2
# Format: binding
# Settings: not given
# Description: To test our predictions, we performed radioligand displacement studies and compared the potencies of our six chiral benzodiazepine ligands for the inhibition of binding of [^3H]flunitrazepam to α2β3γ2 recombinant rat GABAA receptor subtypes (see Figure 4).
# Figure 4 Inhibition of binding of [^3H]flunitrazepam to recombinant α2β3γ2 GABAA receptor subtypes. Membranes from HEK-293 cells transfected with the GABAA receptor subunit combination α2β3γ2 were incubated with 2 nM [^3H]flunitrazepam in the presence of various concentrations of the six BZ site ligands. Data shown are the means ± the standard error of the mean of three independent experiments each performed in duplicate.
# as §1, §3, §4, §5, §6, §7
row,SMILES,Ki [nM]
1,C#Cc1ccc2c(c1)C(c1ccccc1)=N[C@@H](C)c1nnc(C)n1-2 [compound 2-S],164 ± 15
2,C[C@H]1N=C(c2ccccc2)c2cc(Br)ccc2NC1=O [compound 3-R],> 10000
3,CCOC(=O)c1ncn2c1[C@H](C)N=C(c1ccccc1F)c1cc(Br)ccc1-2 [compound 1-S],67 ± 9
4,C#Cc1ccc2c(c1)C(c1ccccc1)=N[C@H](C)c1nnc(C)n1-2 [compound 2-R],> 10000
5,CCOC(=O)c1ncn2c1[C@@H](C)N=C(c1ccccc1F)c1cc(Br)ccc1-2 [compound 1-R],253 ± 31
6,C[C@@H]1N=C(c2ccccc2)c2cc(Br)ccc2NC1=O [compound 3-S],61 ± 10

# Same assay, conditions: 2 nM [3H]flunitrazepam, HEK-293 membranes
row,SMILES,displacement of [3H]flunitrazepam at α2β3γ2 (in words)
1,C#Cc1ccc2c(c1)C(c1ccccc1)=N[C@@H](C)c1nnc(C)n1-2 [compound 2-S],intermediate to high binding affinities
2,C[C@H]1N=C(c2ccccc2)c2cc(Br)ccc2NC1=O [compound 3-R],inactive
3,CCOC(=O)c1ncn2c1[C@H](C)N=C(c1ccccc1F)c1cc(Br)ccc1-2 [compound 1-S],intermediate to high binding affinities
4,C#Cc1ccc2c(c1)C(c1ccccc1)=N[C@H](C)c1nnc(C)n1-2 [compound 2-R],inactive
5,CCOC(=O)c1ncn2c1[C@@H](C)N=C(c1ccccc1F)c1cc(Br)ccc1-2 [compound 1-R],retained its potential to displace the radioligand
6,C[C@@H]1N=C(c2ccccc2)c2cc(Br)ccc2NC1=O [compound 3-S],intermediate to high binding affinities

# Biological target: T4, recombinant rat GABAA receptor α3β3γ2 (Rattus norvegicus, UniProt P18508+P20236)
# T4 construct: expressed in transfected cells; host or cells: HEK-293
# T4 sequence (P20236 29-493): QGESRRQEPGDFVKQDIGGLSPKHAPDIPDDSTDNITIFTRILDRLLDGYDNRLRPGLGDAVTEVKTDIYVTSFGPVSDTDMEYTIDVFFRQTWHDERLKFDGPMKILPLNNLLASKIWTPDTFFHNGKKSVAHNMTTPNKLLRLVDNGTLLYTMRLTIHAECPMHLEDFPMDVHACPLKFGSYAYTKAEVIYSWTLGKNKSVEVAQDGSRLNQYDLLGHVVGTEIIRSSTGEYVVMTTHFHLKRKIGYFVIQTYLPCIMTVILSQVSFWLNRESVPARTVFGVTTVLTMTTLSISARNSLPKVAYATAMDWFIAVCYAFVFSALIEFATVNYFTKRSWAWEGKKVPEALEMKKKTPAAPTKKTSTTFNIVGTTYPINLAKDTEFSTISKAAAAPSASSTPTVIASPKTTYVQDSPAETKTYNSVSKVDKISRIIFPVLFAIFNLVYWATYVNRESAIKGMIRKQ
# T4 sequence (P63079 26-473 partner): as the sequence (P63079 26-473 partner) above
# T4 sequence (P18508 39-466): as the sequence (P18508 39-466) above
# Test: [3H]flunitrazepam radioligand displacement, α3β3γ2
# Format: binding
# Settings: not given
# Description: as §2, §1, §3, §4, §5, §6, §7
row,SMILES,Ki [nM]
1,C#Cc1ccc2c(c1)C(c1ccccc1)=N[C@@H](C)c1nnc(C)n1-2 [compound 2-S],656 ± 110
2,C[C@H]1N=C(c2ccccc2)c2cc(Br)ccc2NC1=O [compound 3-R],> 10000
3,CCOC(=O)c1ncn2c1[C@H](C)N=C(c1ccccc1F)c1cc(Br)ccc1-2 [compound 1-S],136 ± 24
4,C#Cc1ccc2c(c1)C(c1ccccc1)=N[C@H](C)c1nnc(C)n1-2 [compound 2-R],> 10000
5,CCOC(=O)c1ncn2c1[C@@H](C)N=C(c1ccccc1F)c1cc(Br)ccc1-2 [compound 1-R],501 ± 79
6,C[C@@H]1N=C(c2ccccc2)c2cc(Br)ccc2NC1=O [compound 3-S],102 ± 7

# Tested on: α2-containing GABAA receptors
# Test: not given
# Set-up: method as in PMID 20727364
# Settings: versus SH-053-2′F-S-CH3; cited from earlier work
row,SMILES,"lower affinity compared to the S isomer, α2-containing receptors [fold]"
1,C#Cc1ccc2c(c1)C(c1ccccc1F)=N[C@H](C)c1c(C(=O)OCC)ncn1-2 [SH-053-2′F-R-CH3],30

# Tested on: recombinant rat αxβ3γ2 receptors (x = 1, 2, 3, or 5)
# Test: [3H]flunitrazepam radioligand displacement, all receptor subtypes tested
# Format: binding
# Settings: across α1, α2, α3, α5 subtypes
# Description: as §2
# However, we did observe differences in the potency rank order.
# as §1
row,SMILES,subtype selectivity of binding (in words)
1,C#Cc1ccc2c(c1)C(c1ccccc1)=N[C@@H](C)c1nnc(C)n1-2 [compound 2-S],significant higher binding affinities in α2 and α5 GABAAR subtypes than in α1 and α3 subtypes
2,C[C@@H]1N=C(c2ccccc2)c2cc(Br)ccc2NC1=O [compound 3-S],low subtype selectivity

# Same assay, conditions: α1β3γ2, α2β3γ2, α3β3γ2, α5β3γ2; even at high micromolar concentrations for non-binders
row,SMILES,displacement of [3H]flunitrazepam in all receptor subtypes (in words)
1,C#Cc1ccc2c(c1)C(c1ccccc1)=N[C@@H](C)c1nnc(C)n1-2 [compound 2-S],potently replaced
2,C[C@H]1N=C(c2ccccc2)c2cc(Br)ccc2NC1=O [compound 3-R],failed to displace
3,CCOC(=O)c1ncn2c1[C@H](C)N=C(c1ccccc1F)c1cc(Br)ccc1-2 [compound 1-S],potently replaced
4,C#Cc1ccc2c(c1)C(c1ccccc1)=N[C@H](C)c1nnc(C)n1-2 [compound 2-R],failed to displace
5,CCOC(=O)c1ncn2c1[C@@H](C)N=C(c1ccccc1F)c1cc(Br)ccc1-2 [compound 1-R],potently replaced
6,C[C@@H]1N=C(c2ccccc2)c2cc(Br)ccc2NC1=O [compound 3-S],potently replaced

# Biological target: T5, recombinant rat GABAA receptor α5β3γ2 (Rattus norvegicus, UniProt P18508+P19969)
# T5 construct: expressed in transfected cells; host or cells: HEK-293
# T5 sequence (P19969 32-464 limits assumed): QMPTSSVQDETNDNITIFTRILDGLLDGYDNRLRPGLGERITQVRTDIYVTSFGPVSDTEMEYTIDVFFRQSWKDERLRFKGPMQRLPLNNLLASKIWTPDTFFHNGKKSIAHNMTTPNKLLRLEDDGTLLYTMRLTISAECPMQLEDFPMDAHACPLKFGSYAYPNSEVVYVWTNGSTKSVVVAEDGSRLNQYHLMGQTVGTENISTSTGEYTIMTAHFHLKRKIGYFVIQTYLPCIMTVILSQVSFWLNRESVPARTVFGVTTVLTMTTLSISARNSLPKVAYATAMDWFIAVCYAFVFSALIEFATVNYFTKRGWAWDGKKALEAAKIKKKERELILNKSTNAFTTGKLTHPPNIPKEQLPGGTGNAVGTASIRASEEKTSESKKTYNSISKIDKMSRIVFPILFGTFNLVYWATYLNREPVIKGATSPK
# T5 sequence (P63079 26-473 partner): as the sequence (P63079 26-473 partner) above
# T5 sequence (P18508 39-466): as the sequence (P18508 39-466) above
# Test: [3H]flunitrazepam radioligand displacement, α5β3γ2
# Format: binding
# Settings: not given
# Description: as §2, §1, §3, §4, §5, §6, §7
row,SMILES,Ki [nM]
1,C#Cc1ccc2c(c1)C(c1ccccc1)=N[C@@H](C)c1nnc(C)n1-2 [compound 2-S],80 ± 4
2,C[C@H]1N=C(c2ccccc2)c2cc(Br)ccc2NC1=O [compound 3-R],> 10000
3,CCOC(=O)c1ncn2c1[C@H](C)N=C(c1ccccc1F)c1cc(Br)ccc1-2 [compound 1-S],17 ± 5
4,C#Cc1ccc2c(c1)C(c1ccccc1)=N[C@H](C)c1nnc(C)n1-2 [compound 2-R],> 10000
5,CCOC(=O)c1ncn2c1[C@@H](C)N=C(c1ccccc1F)c1cc(Br)ccc1-2 [compound 1-R],56 ± 8
6,C[C@@H]1N=C(c2ccccc2)c2cc(Br)ccc2NC1=O [compound 3-S],31 ± 5

# Same assay, conditions: binding affinity at α5 versus other receptor subtypes
row,SMILES,preference / selectivity for α5-containing receptors [fold]
1,CCOC(=O)c1ncn2c1[C@H](C)N=C(c1ccccc1F)c1cc(Br)ccc1-2 [compound 1-S],> 4
2,CCOC(=O)c1ncn2c1[C@@H](C)N=C(c1ccccc1F)c1cc(Br)ccc1-2 [compound 1-R],~5

# Tested on: GABAA receptors
# Test: not given
# Set-up: method as in PMID 17392731, PMID 20727364
# Settings: cited from earlier work
row,SMILES,binding to GABAA receptors (in words)
1,C#Cc1ccc2c(c1)C(c1ccccc1F)=N[C@@H](C)c1c(C(=O)OCC)ncn1-2 [SH-053-2′F-S-CH3],high affinity
2,C#Cc1ccc2c(c1)C(c1ccccc1F)=N[C@H](C)c1c(C(=O)OCC)ncn1-2 [SH-053-2′F-R-CH3],high affinity
